For test [1], the target named is T1, human Kv1.3 (CHO) (Homo sapiens, UniProt P22001).
T1 construct: expressed in transfected cells; host or cells: CHO
In words: cell-based.

The target in test [2] is T2, human Kv1.1 (HEK293) (Homo sapiens, UniProt Q09470).
T2 construct: expressed in transfected cells; host or cells: HEK293
Description: cell-based.

Bridge positions count the residues as written; N and C are the ends. Peptide text beside a SMILES is read from it.

T2 sequence (Q09470 whole entry): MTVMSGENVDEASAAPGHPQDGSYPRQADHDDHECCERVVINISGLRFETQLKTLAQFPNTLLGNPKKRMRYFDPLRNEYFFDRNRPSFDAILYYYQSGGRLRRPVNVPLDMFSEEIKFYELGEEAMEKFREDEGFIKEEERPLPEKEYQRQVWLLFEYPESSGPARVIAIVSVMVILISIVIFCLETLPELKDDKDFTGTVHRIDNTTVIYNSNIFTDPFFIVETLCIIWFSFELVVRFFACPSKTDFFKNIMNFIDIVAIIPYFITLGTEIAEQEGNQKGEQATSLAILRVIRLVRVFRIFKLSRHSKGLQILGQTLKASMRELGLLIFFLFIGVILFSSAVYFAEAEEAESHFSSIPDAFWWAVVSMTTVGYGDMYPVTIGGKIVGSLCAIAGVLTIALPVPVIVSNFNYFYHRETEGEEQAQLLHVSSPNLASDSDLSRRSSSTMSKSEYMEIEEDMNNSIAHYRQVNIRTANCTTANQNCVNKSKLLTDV
T1 sequence (P22001 whole entry): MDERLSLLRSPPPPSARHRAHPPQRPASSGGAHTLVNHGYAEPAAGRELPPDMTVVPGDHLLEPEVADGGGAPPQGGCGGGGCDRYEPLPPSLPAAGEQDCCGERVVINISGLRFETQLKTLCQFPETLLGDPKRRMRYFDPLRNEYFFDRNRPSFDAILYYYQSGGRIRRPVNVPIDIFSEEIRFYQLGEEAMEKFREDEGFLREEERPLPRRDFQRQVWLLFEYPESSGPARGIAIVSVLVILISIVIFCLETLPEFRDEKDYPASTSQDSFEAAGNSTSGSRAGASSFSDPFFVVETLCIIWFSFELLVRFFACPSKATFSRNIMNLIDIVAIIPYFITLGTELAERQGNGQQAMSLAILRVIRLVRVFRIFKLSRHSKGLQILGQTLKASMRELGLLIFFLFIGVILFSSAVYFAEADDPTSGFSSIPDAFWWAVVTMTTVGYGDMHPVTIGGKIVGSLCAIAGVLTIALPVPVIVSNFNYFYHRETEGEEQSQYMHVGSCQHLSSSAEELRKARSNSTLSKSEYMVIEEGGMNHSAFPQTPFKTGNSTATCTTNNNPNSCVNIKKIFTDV

As usually defined, the IC50 is the midpoint of a concentration-inhibition curve. On to `CC[C@H](C)[C@@H]1NC(=O)[C@H](CCCCN)NC(=O)[C@@H](NC(=O)[C@H](CCCCN)NC(=O)[C@@H](NC(=O)[C@H](CC(N)=O)NC(=O)[C@@H](NC(=O)[C@@H](NC(=O)[C@@H](NC(=O)CN)C(C)C)[C@@H](C)CC)[C@@H](C)CC)C(C)C)CSSC[C@@H]2NC(=O)[C@H](CCCCN)NC(=O)CNC(=O)[C@H](Cc3ccccc3)NC(=O)[C@H](CCCNC(=N)N)NC(=O)[C@H](CCSC)NC(=O)CNC(=O)[C@H](C)NC(=O)[C@H](CCCCN)NC(=O)[C@H](C)NC(=O)[C@@H]3CSSC[C@@H](C(=O)N[C@H](C(=O)N4CCC[C@H]4C(=O)N[C@@H](CCCCN)C(=O)O)[C@@H](C)O)NC(=O)[C@H](Cc4c[nH]cn4)NC(=O)[C@H](CSSC[C@H](NC(=O)[C@H](CCC(N)=O)NC(=O)[C@H](CCCNC(=N)N)NC(=O)[C@H](CO)NC1=O)C(=O)N[C@@H](CC(C)C)C(=O)N[C@@H](CCC(=O)O)C(=O)N1CCC[C@H]1C(=O)N3)NC(=O)[C@H](CCCCN)NC(=O)CNC(=O)[C@H](CC(N)=O)NC(=O)[C@H](CCSC)NC2=O` [K19A] (H-GVIINVKCKISRQCLEPCAKAGMRFGKCMNGKCHCTPK-OH; disulfide 8-28, 14-33, 18-35), for which the IC50 in test [1] came to 0.21 nM; in test [2], 0.0168 nM.

Regarding `CC[C@H](C)[C@@H]1NC(=O)[C@H](CCCCN)NC(=O)[C@@H](NC(=O)[C@H](CCCCN)NC(=O)[C@@H](NC(=O)[C@H](CC(N)=O)NC(=O)[C@@H](NC(=O)[C@@H](NC(=O)[C@@H](NC(=O)CN)C(C)C)[C@@H](C)CC)[C@@H](C)CC)C(C)C)CSSC[C@@H]2NC(=O)[C@H](CCCCN)NC(=O)CNC(=O)[C@H](Cc3ccccc3)NC(=O)[C@H](CCCNC(=N)N)NC(=O)[C@H](CCSC)NC(=O)CNC(=O)[C@H](C)NC(=O)[C@H](CCCCN)NC(=O)[C@H](CCC(=O)O)NC(=O)[C@@H]3CSSC[C@@H](C(=O)N[C@H](C(=O)N4CCC[C@H]4C(=O)N[C@@H](CCCCN)C(=O)O)[C@@H](C)O)NC(=O)[C@H](Cc4c[nH]cn4)NC(=O)[C@H](CSSC[C@H](NC(=O)[C@H](CCC(N)=O)NC(=O)[C@H](CCCNC(=N)N)NC(=O)[C@H](CO)NC1=O)C(=O)N[C@@H](CC(C)C)C(=O)N[C@@H](CCC(=O)O)C(=O)N1CCC[C@H]1C(=O)N3)NC(=O)[C@H](CCCCN)NC(=O)CNC(=O)[C@H](CC(N)=O)NC(=O)[C@H](CCSC)NC2=O` [K19E] (H-GVIINVKCKISRQCLEPCEKAGMRFGKCMNGKCHCTPK-OH; disulfide 8-28, 14-33, 18-35), the concentration for half-maximal inhibition (IC50) in test [1] was 0.0235 nM; in test [2], 0.0137 nM.

With `CC[C@H](C)[C@@H]1NC(=O)[C@H](CCCCN)NC(=O)[C@@H](NC(=O)[C@H](CCCCN)NC(=O)[C@@H](NC(=O)[C@H](CC(N)=O)NC(=O)[C@@H](NC(=O)[C@@H](NC(=O)[C@@H](NC(=O)CN)C(C)C)[C@@H](C)CC)[C@@H](C)CC)C(C)C)CSSC[C@@H]2NC(=O)[C@H](CCCCN)NC(=O)CNC(=O)[C@H](Cc3ccccc3)NC(=O)[C@H](CCCNC(=N)N)NC(=O)[C@H](CCSC)NC(=O)CNC(=O)[C@H](C)NC(=O)[C@H](CCCCN)NC(=O)[C@H](CCCNC(=N)N)NC(=O)[C@@H]3CSSC[C@@H](C(=O)N[C@H](C(=O)N4CCC[C@H]4C(=O)N[C@@H](CCCCN)C(=O)O)[C@@H](C)O)NC(=O)[C@H](Cc4c[nH]cn4)NC(=O)[C@H](CSSC[C@H](NC(=O)[C@H](CCC(N)=O)NC(=O)[C@H](CCCNC(=N)N)NC(=O)[C@H](CO)NC1=O)C(=O)N[C@@H](CC(C)C)C(=O)N[C@@H](CCC(=O)O)C(=O)N1CCC[C@H]1C(=O)N3)NC(=O)[C@H](CCCCN)NC(=O)CNC(=O)[C@H](CC(N)=O)NC(=O)[C@H](CCSC)NC2=O` [K19R] (H-GVIINVKCKISRQCLEPCRKAGMRFGKCMNGKCHCTPK-OH; disulfide 8-28, 14-33, 18-35), the results for the IC50 in test [1] and in test [2] were 0.0126 nM and 0.00241 nM, respectively.

For `CC[C@H](C)[C@@H]1NC(=O)[C@H](CCCCN)NC(=O)[C@@H](NC(=O)[C@H](CCCCN)NC(=O)[C@@H](NC(=O)[C@H](CC(N)=O)NC(=O)[C@@H](NC(=O)[C@@H](NC(=O)[C@@H](NC(=O)CN)C(C)C)[C@@H](C)CC)[C@@H](C)CC)C(C)C)CSSC[C@@H]2NC(=O)[C@H](CCCCN)NC(=O)CNC(=O)[C@H](Cc3ccccc3)NC(=O)[C@H](CCCNC(=N)N)NC(=O)[C@H](CCSC)NC(=O)CNC(=O)[C@H](C)NC(=O)[C@H](C)NC(=O)[C@H](CCCCN)NC(=O)[C@@H]3CSSC[C@@H](C(=O)N[C@H](C(=O)N4CCC[C@H]4C(=O)N[C@@H](CCCCN)C(=O)O)[C@@H](C)O)NC(=O)[C@H](Cc4c[nH]cn4)NC(=O)[C@H](CSSC[C@H](NC(=O)[C@H](CCC(N)=O)NC(=O)[C@H](CCCNC(=N)N)NC(=O)[C@H](CO)NC1=O)C(=O)N[C@@H](CC(C)C)C(=O)N[C@@H](CCC(=O)O)C(=O)N1CCC[C@H]1C(=O)N3)NC(=O)[C@H](CCCCN)NC(=O)CNC(=O)[C@H](CC(N)=O)NC(=O)[C@H](CCSC)NC2=O` [K20A] (H-GVIINVKCKISRQCLEPCKAAGMRFGKCMNGKCHCTPK-OH; disulfide 8-28, 14-33, 18-35), the IC50 in test [1] was 1.04 nM; in test [2] it was 0.185 nM.

As to `CC[C@H](C)[C@@H]1NC(=O)[C@H](CCCCN)NC(=O)[C@@H](NC(=O)[C@H](CCCCN)NC(=O)[C@@H](NC(=O)[C@H](CC(N)=O)NC(=O)[C@@H](NC(=O)[C@@H](NC(=O)[C@@H](NC(=O)CN)C(C)C)[C@@H](C)CC)[C@@H](C)CC)C(C)C)CSSC[C@@H]2NC(=O)[C@H](CCCCN)NC(=O)CNC(=O)[C@H](Cc3ccccc3)NC(=O)[C@H](CCCNC(=N)N)NC(=O)[C@H](CCSC)NC(=O)CNC(=O)[C@H](C)NC(=O)[C@H](CCC(=O)O)NC(=O)[C@H](CCCCN)NC(=O)[C@@H]3CSSC[C@@H](C(=O)N[C@H](C(=O)N4CCC[C@H]4C(=O)N[C@@H](CCCCN)C(=O)O)[C@@H](C)O)NC(=O)[C@H](Cc4c[nH]cn4)NC(=O)[C@H](CSSC[C@H](NC(=O)[C@H](CCC(N)=O)NC(=O)[C@H](CCCNC(=N)N)NC(=O)[C@H](CO)NC1=O)C(=O)N[C@@H](CC(C)C)C(=O)N[C@@H](CCC(=O)O)C(=O)N1CCC[C@H]1C(=O)N3)NC(=O)[C@H](CCCCN)NC(=O)CNC(=O)[C@H](CC(N)=O)NC(=O)[C@H](CCSC)NC2=O` [K20E] (H-GVIINVKCKISRQCLEPCKEAGMRFGKCMNGKCHCTPK-OH; disulfide 8-28, 14-33, 18-35), the IC50 in test [1] stood at 0.0254 nM; in test [2], 0.00576 nM.

For the compound `CC[C@H](C)[C@@H]1NC(=O)[C@H](CCCCN)NC(=O)[C@@H](NC(=O)[C@H](CCCCN)NC(=O)[C@@H](NC(=O)[C@H](CC(N)=O)NC(=O)[C@@H](NC(=O)[C@@H](NC(=O)[C@@H](NC(=O)CN)C(C)C)[C@@H](C)CC)[C@@H](C)CC)C(C)C)CSSC[C@@H]2NC(=O)[C@H](CCCCN)NC(=O)CNC(=O)[C@H](Cc3ccccc3)NC(=O)[C@H](CCCNC(=N)N)NC(=O)[C@H](CCSC)NC(=O)CNC(=O)[C@H](C)NC(=O)[C@H](CCCNC(=N)N)NC(=O)[C@H](CCCCN)NC(=O)[C@@H]3CSSC[C@@H](C(=O)N[C@H](C(=O)N4CCC[C@H]4C(=O)N[C@@H](CCCCN)C(=O)O)[C@@H](C)O)NC(=O)[C@H](Cc4c[nH]cn4)NC(=O)[C@H](CSSC[C@H](NC(=O)[C@H](CCC(N)=O)NC(=O)[C@H](CCCNC(=N)N)NC(=O)[C@H](CO)NC1=O)C(=O)N[C@@H](CC(C)C)C(=O)N[C@@H](CCC(=O)O)C(=O)N1CCC[C@H]1C(=O)N3)NC(=O)[C@H](CCCCN)NC(=O)CNC(=O)[C@H](CC(N)=O)NC(=O)[C@H](CCSC)NC2=O` [K20R] (H-GVIINVKCKISRQCLEPCKRAGMRFGKCMNGKCHCTPK-OH; disulfide 8-28, 14-33, 18-35), the half-maximal inhibitory concentration (IC50) was 0.00985 nM in test [1] and under 0.00152 nM in test [2].

The values are drawn from US20090299044A1 (priority 2006, published 2009).
